Where no end group is shown, it is not given here.
Tests used:
indicated HLA alleles [1] = experiment: Stability of mutant EGFR neopeptides with the HLA alleles; assay type: binding, human
Method: (§1) Multiple peptides containing neoepitopes in the table below were either expressed or loaded onto antigen presenting cells. Mass spectrometry was then performed and the affinity of the neoepitopes for indicated HLA alleles were determined, and the stability of the neoepitopes with the HLA alleles were determined.

indicated HLA alleles [2] = experiment: Affinity of mutant EGFR neopeptides for indicated HLA alleles; assay type: binding, human
HLA-B07:02 [3] = molecular target: T1, HLA-B07:02 (Homo sapiens, UniProt P01889); experiment: Stability measurements, pMHC-I dissociation with 125I light chain (Example 20); assay type: binding
Method: To measure the binding stability of peptides to Class I MHC, synthetic genes encoding biotinylated MHC-I heavy and light chains are expressed in E. coli and purified from inclusion bodies using standard methods. […] These reactions were carried out in streptavidin coated microplates to bind the biotinylated MHC-I heavy chains to the surface and allow measurement of radiolabeled light chain to monitor complex formation. Dissociation was initiated by addition of higher concentrations of unlabeled light-chain and incubation at 37° C. Stability was defined as the length of time in hours it takes for half of the complexes to dissociate, as measured by scintillation counts. Duplicate measurements were performed. The average of the two measurements was taken as the stability.

indicated HLA alleles [4] = experiment: Stability of GATA3 neoORF neoepitopes with the HLA alleles (Example 9, Table 4); assay type: binding, human
Method: (§2) Multiple peptides containing the neoepitopes in Table 4 below were expressed or loaded onto antigen presenting cells (APCs). Mass spectrometry was then performed and the affinity of the neoepitopes for the indicated HLA alleles and stability of the neoepitopes with the HLA alleles was determined.

HLA-B07:02 [5] = molecular target: T1, HLA-B07:02; experiment: Detection of GATA3 neoORF peptides by mass spectrometry (Example 8); assay type: cell-based; conditions: 293T cells transduced with GATA3 neoORF lentiviral vector, expressing HLA-B07:02; eluted peptides, MS/MS
indicated HLA alleles [6] = molecular target: indicated HLA alleles (Homo sapiens, UniProt P01889); experiment: Affinity of GATA3 neoORF neoepitopes for the indicated HLA alleles (Example 9, Table 4); assay type: binding
Method: as §2

HLA-B07:02 [7] = molecular target: T1, HLA-B07:02; experiment: Affinity measurements, competition with radiolabeled peptide (Example 20); assay type: binding
indicated HLA alleles [8] = experiment: Affinity of GATA3 neoORF neoepitopes for the indicated HLA alleles (Example 9, Table 4); assay type: binding, human; conditions: read-out: Observed MHC affinity
Method: as §2

HLA-A02:01 = HLA-A02:01 (Homo sapiens, UniProt P04439, D140Y/D185E/D98H/E176V/E277Q/G131W/G231S/I119V/I121R/I166T/I218V/L300P/L318F/N151K/N90K/P208A/P217A/Q86G/Q94H/R138H/R169H/T345S); experiment: Detection of GATA3 neoORF peptides by mass spectrometry (Example 8); assay type: cell-based; conditions: 293T cells transduced with GATA3 neoORF lentiviral vector, expressing HLA-A02:01; peptides eluted from HLA-peptide complexes, MS/MS
[9] = system: antigen specific CD8+ T cells; experiment: Antigen specific CD8+ T cell induction monitored with pMHC multimers (Example 10); assay type: cell-based, human; conditions: PBMCs from 3 different healthy donors
Method: PBMC samples from a human donor were used to perform antigen specific T cell induction. CD8^+ T cell inductions were analyzed after manufacturing T cells. Cell samples can be taken out at different time points for analysis. pMIHC multimers were used to monitor the fraction of antigen specific CD8^+ T cells in the induction cultures. […] FIG. 9A depicts an exemplary result of a T cell response assay using PBMCs from 6 different healthy donors showing the fraction of antigen specific CD8^+ T cells that responded to […] peptide analyzed by flow cytometry after stimulation or induction. […] FIG. 9B depicts an exemplary result of a T cell response assay using PBMCs from a healthy donor showing fraction of antigen specific CD8^+ T cells that responded to […] peptide analyzed by flow cytometry after stimulation or induction.

indicated HLA alleles [10] = molecular target: T2, indicated HLA alleles (Homo sapiens, UniProt P04439); experiment: Affinity of GATA3 neoORF neoepitopes for the indicated HLA alleles (Example 9, Table 4); assay type: binding
Method: as §2

indicated HLA alleles [11] = experiment: Stability of mutant BTK neopeptides with the HLA alleles; assay type: binding, human
Method: as §1

indicated HLA alleles [12] = experiment: Affinity of mutant BTK neopeptides for indicated HLA alleles; assay type: binding, human
Method: as §1

indicated HLA alleles [13] = molecular target: T2, indicated HLA alleles; experiment: Stability of mutant BTK neopeptides with the HLA alleles; assay type: binding; conditions: BTK, C481S; HLA A03.01
Method: as §1

indicated HLA alleles [14] = molecular target: T2, indicated HLA alleles; experiment: Affinity of mutant BTK neopeptides for indicated HLA alleles; assay type: binding
Method: as §1

[15] = ovarian carcinoma patients, poly-ICLC with NYESO-1 peptide vaccine (in addition to Montanide), phase 1 study; cited from earlier work

## IMQLMPFGC
Indicated HLA alleles [1]; EGFR_T790M, HLA A02.01
  Stability (1/2 hr): 0.3701 h
Indicated HLA alleles [2]; EGFR_T790M, HLA A02.01
  Kd: 1210 nM

## KPKRDGYMFL
HLA-B07:02 [3]
  Experiment 1 half-life: 3.3 h
  Experiment 2 half-life: 3.3 h
HLA-B07:02 [3]; average of experiments 1 and 2
  Average half-life: 3.3 h
Indicated HLA alleles [4]; Allele B07:02
  Observed MHC stability: 3.3 h
HLA-B07:02 [5]
  detected by mass spectrometry: detected
Indicated HLA alleles [6]
  Kd: 98 nM
HLA-B07:02 [7]
  IC50: 115 nM

## LIMQLMPFG
Indicated HLA alleles [1]; EGFR_T790M, HLA A02.01
  Stability (1/2 hr): 0 h
Indicated HLA alleles [2]; EGFR_T790M, HLA A02.01
  Kd: 3340 nM

## LTSTVQLIM
Indicated HLA alleles [1]; EGFR T790M, HLA A01.01
  Stability (1/2 hr): 0.1037 h
Indicated HLA alleles [2]; EGFR T790M, HLA A01.01
  Kd: 2890 nM

## MFLKAESKI
Indicated HLA alleles [4]; Allele A24:02
  Observed MHC stability: 0.2 h
Indicated HLA alleles [8]; Allele A24:02
  Kd: 332 nM

## QPVLWTTPPL
Indicated HLA alleles [4]; Allele B07:02
  Observed MHC stability: 1.4 h
Indicated HLA alleles [6]
  Kd: 109 nM

## STVQLIMQL
Indicated HLA alleles [1]; EGFR_T790M, HLA A02.01
  Stability (1/2 hr): 0 h
Indicated HLA alleles [2]; EGFR_T790M, HLA A02.01
  Kd: 7260 nM

## VLPEPHLAL [VLPEPHLAL]
Indicated HLA alleles [4]; Allele A02.01
  Observed MHC stability: 1.1 h
Indicated HLA alleles [8]; Allele A02.01
  Kd: 16 nM
HLA-A02:01
  detected by mass spectrometry: detected
[9]
  healthy donors showing an increase in the fraction of antigen specific CD8+ T cells: one of the three donors

## VLWTTPPLQH
Indicated HLA alleles [4]; Allele A03:01
  Observed MHC stability: 0.3 h
Indicated HLA alleles [4]; Allele A11:01
  Observed MHC stability: 0 h
Indicated HLA alleles [10]
  Kd: 16 nM
Indicated HLA alleles [8]; Allele A11:01
  Kd: 4540 nM

## YMANGSLLN
Indicated HLA alleles [11]; BTK_C481S, HLA A02.01
  Stability (1/2 hr): 0 h
Indicated HLA alleles [12]; BTK_C481S, HLA A02.01
  Kd: 4000 nM

## YMANGSLLNY
Indicated HLA alleles [13]
  Stability (1/2 hr): 0.2791 h
Indicated HLA alleles [11]; BTK, C481S, HLA A01.01
  Stability (1/2 hr): 0.8662 h
Indicated HLA alleles [14]
  Kd: 95.9 nM
Indicated HLA alleles [12]; BTK, C481S, HLA A01.01
  Kd: 13.2 nM
Indicated HLA alleles [12]; BTK, C481S, HLA A11.01
  Kd: 974 nM

## poly-ICLC
[15]
  patients showing induction of CD4+ and CD8+ T cell and antibody responses to the peptide: > 90%
